Each compound was assayed against ATP-dependent translocase ABCB1 (Mus musculus, UniProt P21447) (assay: TP_TRANSPORTER: transepithelial transport (basal to apical) in Mdr1a-expressing LLC-PK1 cells). Details: pig.
Assay type: functional, cell-based

ATP-dependent translocase ABCB1, sequence (P21447 whole entry): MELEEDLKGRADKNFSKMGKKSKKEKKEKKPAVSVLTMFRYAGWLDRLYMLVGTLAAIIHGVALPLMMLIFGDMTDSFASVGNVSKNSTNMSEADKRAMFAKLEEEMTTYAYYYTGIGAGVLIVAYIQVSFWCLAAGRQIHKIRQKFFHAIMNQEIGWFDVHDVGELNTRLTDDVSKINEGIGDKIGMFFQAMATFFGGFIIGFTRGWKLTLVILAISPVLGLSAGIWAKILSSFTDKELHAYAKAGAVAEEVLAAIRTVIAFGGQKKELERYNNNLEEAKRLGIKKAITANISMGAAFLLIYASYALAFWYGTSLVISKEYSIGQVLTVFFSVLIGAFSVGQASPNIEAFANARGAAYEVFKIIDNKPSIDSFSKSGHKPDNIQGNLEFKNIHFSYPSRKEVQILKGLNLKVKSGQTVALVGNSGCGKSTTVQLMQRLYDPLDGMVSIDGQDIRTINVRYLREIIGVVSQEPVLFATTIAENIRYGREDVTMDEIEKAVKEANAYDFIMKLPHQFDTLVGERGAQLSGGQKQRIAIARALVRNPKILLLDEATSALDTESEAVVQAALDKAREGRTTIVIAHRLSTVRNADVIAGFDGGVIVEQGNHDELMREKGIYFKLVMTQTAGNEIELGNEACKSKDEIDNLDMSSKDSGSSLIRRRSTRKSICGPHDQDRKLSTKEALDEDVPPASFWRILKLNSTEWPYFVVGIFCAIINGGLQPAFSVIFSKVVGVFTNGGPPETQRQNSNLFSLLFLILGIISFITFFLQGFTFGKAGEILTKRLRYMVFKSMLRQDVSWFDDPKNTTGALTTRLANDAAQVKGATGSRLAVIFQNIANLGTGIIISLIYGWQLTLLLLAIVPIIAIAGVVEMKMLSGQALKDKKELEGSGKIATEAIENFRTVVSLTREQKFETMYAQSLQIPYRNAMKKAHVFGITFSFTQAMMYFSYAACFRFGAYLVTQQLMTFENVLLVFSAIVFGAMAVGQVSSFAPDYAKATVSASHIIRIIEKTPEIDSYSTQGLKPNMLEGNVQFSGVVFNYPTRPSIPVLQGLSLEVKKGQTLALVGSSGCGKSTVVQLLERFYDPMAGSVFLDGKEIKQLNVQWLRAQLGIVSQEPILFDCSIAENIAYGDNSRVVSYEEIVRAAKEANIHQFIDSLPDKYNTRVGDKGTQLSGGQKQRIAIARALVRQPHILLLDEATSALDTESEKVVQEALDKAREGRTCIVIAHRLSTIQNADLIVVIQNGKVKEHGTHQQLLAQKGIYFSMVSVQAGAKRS

| SMILES | Activity |
| --- | --- |
| CCc1c2c(nc3ccc(OC[C@@H]4O[C@H](C(=O)O)[C@@H](O)[C@H](O)[C@H]4O)cc13)-c1cc3c(c(=O)n1C2)COC(=O)[C@]3(O)CC | substrate [+] |
| CCc1c2c(nc3ccc(OC(=O)N4CCC(N5CCCCC5)CC4)cc13)-c1cc([C@@](O)(CC)C(=O)O)c(CO)c(=O)n1C2 | substrate [+] |
| CCc1c2c(nc3ccc(OC(=O)N4CCC(N5CCCCC5)CC4)cc13)-c1cc3c(c(=O)n1C2)COC(=O)[C@]3(O)CC [IRINOTECAN] | substrate [+] |
| CCc1c2c(nc3ccc(O)cc13)-c1cc([C@@](O)(CC)C(=O)O)c(CO)c(=O)n1C2 | substrate [+] |
